According to patent publication US20240024446A1 (priority 2020, published 2024):
Values joined by “and” are separate entries in the source; they are usually repeats but may differ in a detail not shown here. Identical values can stand only once.

Tests used:
[1] = format: in vivo; conditions: pig plasma; DON bolus 0.05 mg/kg at 11 weeks of age; DON-KLH = pigs immunised IM at 3 and 6 weeks, DON = control pigs
Experimental: Ten 3 week old pigs were used in the study, divided over 2 groups of 5 pigs each. The pigs in Group 1 were immunised IM twice at 3 and 6 weeks of age with DON-KLH (Test Article 1; example1). Group 2 served as a control and only received a control fluid. At the age of 11 weeks the animals were each administered DON (Fermentek, Israel) via a bolus at a dose of 0.05 mg/kg which (based on the daily feed intake) resembled a contamination level of 1 mg/kg feed. Blood samples of the pigs were taken juts before DON administration and 0.25, 0.5, 0.75, 1, 1.5, 2, 3, 4, 6, 8, and 12 h post DON administration.
Plasma analysis of unbound DON was done using a validated LC-MS/MS method on an Acquity® UPLC system coupled to a Xevo® TQ-S MS instrument (Waters, Zellik, Belgium). The lower limit of quantification of DON in pig plasma using this method is 0.1 ng/ml.
Toxicokinetic modeling of the plasma concentration-time profiles of DON was done by noncompartmental analysis (Phoenix, Pharsight Corporation, USA). Following parameters were calculated: area under the curve from time zero to infinite (AUC0→∞), maximal plasma concentration (Cmax), and time at maximal plasma concentration (tmax).

C6 cells [2] = format: cell-based, rats
C6 cells [3] = test: In vitro potency test/neutralization assay with fish sera on C6 cells; format: cell-based, rats
Experimental: In line with Example 7, an in vitro potency test/neutralization assay was performed with the sera raised as described in Example 8. For this, C6 cells were seeded at 2.0*10^4 cells/ml, 100 μl per well, and grown at 37° C., 5% CO2 for 3 days. Cells were incubated for 48 h, with a combination of 20 μg/ml AFB1 and 32× diluted serum derived from fish vaccinated with AFB1-KLH in GNE or vaccinated with a placebo. Percentages of live cells were determined by microscopical evaluation.

| Structure (SMILES) | AUC0→∞ of unbound DON [1] | Cmax of unbound DON [1] | concentration from which toxic on C6 cells (dose response curve) (C6 cells [2]) | Percentage live cells after incubation with AFB1 and diluted fish serum (C6 cells [3]) |
| --- | --- | --- | --- | --- |
| CC1=C[C@H]2O[C@@H]3[C@H](O)C[C@](C)([C@@]2(CO)[C@H](O)C1=O)[C@]31CO1 [DON, deoxynivalenol] | 187 ± 33 | 30.8 ± 2.5 | – | – |
| COc1cc2c(c3oc(=O)c4c(c13)CCC4=O)[C@@H]1C=CO[C@@H]1O2 [AFB1, Aflatoxin B1] | – | – | ≥ 20000 ng/mL | 95% and 65% |
